Test results from ChEMBL document CHEMBL3885861, “Open TG-GATES”.

Species on record: Rattus norvegicus
Test: Open TG-GATES - Regimen: Daily Repeat
Format: toxicity, organism-based, Sprague-Dawley
Parameters: regimen Daily Repeat, gender Male, age 6 weeks
Details: in vivo, po, route gavage; for Bas / Eos / Fbg / Ht / Lym / MCHC / MCV / Mono / PT / Plat / RBC / Ret / WBC / Neu: tissue Blood; for KIDNEY_L / KIDNEY_R / KIDNEY_TOTAL: tissue Kidney; for ALT / AST / CRE / Ca / DBIL / GLC / IP / K / LDH / Na / PL / RALB / TBIL / TC / TG / TP / gamma-GTP / BUN / Cl: tissue Plasma
[1] = 0 mg/kg, 72 h, dose level Control, time 3 day
[2] = 0 mg/kg, […], dose level Control, time 7 day
[3] = 0 mg/kg, […], dose level Control, time 14 day
[4] = 0 mg/kg, […], dose level Control, time 28 day
[5] = 80 mg/kg, 72 h, dose level Low, time 3 day
[6] = 80 mg/kg, […], dose level Low, time 7 day
[7] = 80 mg/kg, […], dose level Low, time 14 day
[8] = 80 mg/kg, […], dose level Low, time 28 day

COc1ccc([C@@H]2Sc3ccccc3N(CCN(C)C)C(=O)[C@@H]2OC(C)=O)cc1 [DILTIAZEM]
TERMINAL_BW [1]: 215.4 g | Bas [1]: 0.2% | Eos [1]: 1% | Fbg [1]: 262.2 mg/dL | Ht [1]: 41.3% | Lym [1]: 74.6% | MCHC [1]: 32.7% | MCV [1]: 67.4 fL | Mono [1]: 3.4% | PT [1]: 14.3 s | Plat [1]: 126.4 x10_4/uL | RBC [1]: 613.4 x10_4/ul | Ret [1]: 8.9% | WBC [1]: 101.8 x10_2/uL | KIDNEY_L [1]: 1 g | KIDNEY_R [1]: 1 g | KIDNEY_TOTAL [1]: 1.9 g | ALT [1]: 45.8 IU/L | AST [1]: 76.8 IU/L | CRE [1]: 0.2 mg/dL | Ca [1]: 11.2 mg/dL | DBIL [1]: 0.016 mg/dL | GLC [1]: 177.4 mg/dL | IP [1]: 7.6 mg/dL | K [1]: 4 meq/L | LDH [1]: 97 IU/L | Na [1]: 143.8 meq/L | PL [1]: 151.2 mg/dL | RALB [1]: 2.7 g/dL | TBIL [1]: 0.032 mg/dL | TC [1]: 79.6 mg/dL | TG [1]: 86 mg/dL | TP [1]: 5.5 g/dL | gamma-GTP [1]: 1.2 IU/L | TERMINAL_BW [2]: 250.6 g | TERMINAL_BW [3]: 321.8 g | TERMINAL_BW [4]: 411.3 g | Bas [2]: 0% | Eos [2]: 0.8% | Fbg [2]: 297.6 mg/dL | Ht [2]: 41.8% | Lym [2]: 77% | MCHC [2]: 33.1% | MCV [2]: 64.6 fL | Mono [2]: 2.8% | Neu [2]: 18.4% | PT [2]: 14.2 s | Plat [2]: 137.2 x10_4/uL | RBC [2]: 648 x10_4/ul | Ret [2]: 6.7% | WBC [2]: 91.7 x10_2/uL | Bas [3]: 0.4% | Eos [3]: 0.6% | Fbg [3]: 290.8 mg/dL | Ht [3]: 44% | Lym [3]: 82.2% | MCHC [3]: 33.2% | MCV [3]: 62.3 fL | Mono [3]: 2.2% | Neu [3]: 14% | PT [3]: 14.1 s | Plat [3]: 141.2 x10_4/uL | RBC [3]: 706.2 x10_4/ul | Ret [3]: 5.2% | Bas [4]: 0.4% | Eos [4]: 1% | Fbg [4]: 302.8 mg/dL | Ht [4]: 45.8% | Lym [4]: 77% | MCHC [4]: 34.1% | MCV [4]: 57.2 fL | Mono [4]: 2.4% | Neu [4]: 18.8% | PT [4]: 14 s | Plat [4]: 112.6 x10_4/uL | RBC [4]: 801.4 x10_4/ul | Ret [4]: 2.5% | WBC [4]: 99.4 x10_2/uL | KIDNEY_L [2]: 1.1 g | KIDNEY_R [2]: 1 g | KIDNEY_TOTAL [2]: 2.1 g | KIDNEY_L [3]: 1.3 g | KIDNEY_R [3]: 1.3 g | KIDNEY_TOTAL [3]: 2.6 g | KIDNEY_L [4]: 1.5 g | KIDNEY_R [4]: 1.5 g | KIDNEY_TOTAL [4]: 3 g | ALT [2]: 45.4 IU/L | AST [2]: 72.6 IU/L | BUN [2]: 14.8 mg/dL | CRE [2]: 0.2 mg/dL | Ca [2]: 11.1 mg/dL | Cl [2]: 106.4 meq/L | DBIL [2]: 0.014 mg/dL | GLC [2]: 187.8 mg/dL | IP [2]: 7.6 mg/dL | K [2]: 4.3 meq/L | LDH [2]: 84 IU/L | Na [2]: 143.8 meq/L | PL [2]: 162.4 mg/dL | RALB [2]: 2.8 g/dL | TBIL [2]: 0.018 mg/dL | TC [2]: 82.8 mg/dL | TG [2]: 112.6 mg/dL | TP [2]: 5.8 g/dL | gamma-GTP [2]: 1 IU/L | ALT [3]: 39 IU/L | AST [3]: 65.6 IU/L | BUN [3]: 16 mg/dL | CRE [3]: 0.2 mg/dL | Ca [3]: 10.8 mg/dL | Cl [3]: 105.6 meq/L | DBIL [3]: 0.018 mg/dL | GLC [3]: 189 mg/dL | IP [3]: 6.9 mg/dL | K [3]: 4.1 meq/L | LDH [3]: 92.8 IU/L | Na [3]: 144 meq/L | PL [3]: 160.4 mg/dL | RALB [3]: 2.8 g/dL | TBIL [3]: 0.02 mg/dL | TC [3]: 71.2 mg/dL | TG [3]: 180.4 mg/dL | TP [3]: 5.8 g/dL | gamma-GTP [3]: 1 IU/L | ALT [4]: 37.2 IU/L | AST [4]: 66 IU/L | BUN [4]: 16.8 mg/dL | CRE [4]: 0.3 mg/dL | Ca [4]: 11.1 mg/dL | Cl [4]: 108 meq/L | DBIL [4]: 0.014 mg/dL | GLC [4]: 198.8 mg/dL | IP [4]: 6.8 mg/dL | K [4]: 3.7 meq/L | LDH [4]: 63.4 IU/L | Na [4]: 146.4 meq/L | PL [4]: 160.2 mg/dL | RALB [4]: 2.9 g/dL | TBIL [4]: 0.028 mg/dL | TC [4]: 79.4 mg/dL | TG [4]: 125.2 mg/dL | TP [4]: 6.2 g/dL | gamma-GTP [4]: 1.2 IU/L | TERMINAL_BW [5]: 214.1 g | Bas [5]: 0% | Eos [5]: 0.8% | Fbg [5]: 270 mg/dL | Ht [5]: 39.8% | Lym [5]: 72.2% | MCHC [5]: 32.8% | MCV [5]: 64.2 fL | Mono [5]: 2.8% | Neu [5]: 23.2% | PT [5]: 13.8 s | Plat [5]: 118.7 x10_4/uL | RBC [5]: 621.2 x10_4/ul | Ret [5]: 8.5% | KIDNEY_L [5]: 0.9 g | KIDNEY_R [5]: 1 g | KIDNEY_TOTAL [5]: 1.9 g | ALT [5]: 48.6 IU/L | AST [5]: 68.2 IU/L | CRE [5]: 0.2 mg/dL | Ca [5]: 11.1 mg/dL | DBIL [5]: 0.02 mg/dL | GLC [5]: 178 mg/dL | IP [5]: 7.4 mg/dL | K [5]: 4 meq/L | LDH [5]: 78.4 IU/L | Na [5]: 143.8 meq/L | PL [5]: 161.2 mg/dL | RALB [5]: 2.6 g/dL | TBIL [5]: 0.026 mg/dL | TC [5]: 86.4 mg/dL | TG [5]: 128.8 mg/dL | TP [5]: 5.5 g/dL | gamma-GTP [5]: 1.2 IU/L | TERMINAL_BW [6]: 255.5 g | TERMINAL_BW [7]: 315.7 g | TERMINAL_BW [8]: 415.5 g | Bas [6]: 0% | Eos [6]: 1% | Fbg [6]: 295 mg/dL | Ht [6]: 41.2% | Lym [6]: 77.4% | MCHC [6]: 33.2% | MCV [6]: 65.1 fL | Mono [6]: 2.6% | Neu [6]: 17.8% | PT [6]: 14.2 s | Plat [6]: 132.9 x10_4/uL | RBC [6]: 632 x10_4/ul | Ret [6]: 7.5% | WBC [6]: 77.3 x10_2/uL | Bas [7]: 0.4% | Eos [7]: 0.6% | Fbg [7]: 311.2 mg/dL | Ht [7]: 44.4% | Lym [7]: 80.2% | MCHC [7]: 32.9% | MCV [7]: 63.6 fL | Mono [7]: 2.4% | PT [7]: 13.8 s | Plat [7]: 139.6 x10_4/uL | RBC [7]: 698.8 x10_4/ul | Ret [7]: 5% | WBC [7]: 116 x10_2/uL | Bas [8]: 0.2% | Eos [8]: 1.2% | Fbg [8]: 313.4 mg/dL | Ht [8]: 46.4% | Lym [8]: 77.4% | MCHC [8]: 33.9% | MCV [8]: 57.8 fL | Mono [8]: 2.2% | Neu [8]: 18.4% | PT [8]: 14 s | Plat [8]: 111.5 x10_4/uL | RBC [8]: 803.2 x10_4/ul | Ret [8]: 2.5% | KIDNEY_L [6]: 1.1 g | KIDNEY_R [6]: 1.1 g | KIDNEY_TOTAL [6]: 2.2 g | KIDNEY_L [7]: 1.3 g | KIDNEY_R [7]: 1.3 g | KIDNEY_TOTAL [7]: 2.6 g | KIDNEY_L [8]: 1.4 g | KIDNEY_R [8]: 1.4 g | KIDNEY_TOTAL [8]: 2.8 g | ALT [6]: 43.2 IU/L | AST [6]: 68.6 IU/L | BUN [6]: 15.4 mg/dL | CRE [6]: 0.2 mg/dL | Ca [6]: 11.2 mg/dL | DBIL [6]: 0.014 mg/dL | GLC [6]: 192.4 mg/dL | IP [6]: 8.3 mg/dL | K [6]: 4 meq/L | LDH [6]: 83.4 IU/L | Na [6]: 143.6 meq/L | PL [6]: 153.2 mg/dL | RALB [6]: 2.8 g/dL | TBIL [6]: 0.02 mg/dL | TC [6]: 81.2 mg/dL | TG [6]: 109.2 mg/dL | TP [6]: 5.8 g/dL | gamma-GTP [6]: 1 IU/L | ALT [7]: 45 IU/L | AST [7]: 70.4 IU/L | BUN [7]: 16.2 mg/dL | CRE [7]: 0.2 mg/dL | Ca [7]: 10.9 mg/dL | Cl [7]: 105.8 meq/L | DBIL [7]: 0.016 mg/dL | GLC [7]: 184.8 mg/dL | IP [7]: 7 mg/dL | K [7]: 4.2 meq/L | LDH [7]: 99.2 IU/L | Na [7]: 144.6 meq/L | PL [7]: 171.8 mg/dL | RALB [7]: 2.8 g/dL | TBIL [7]: 0.018 mg/dL | TC [7]: 81.8 mg/dL | TG [7]: 169.6 mg/dL | TP [7]: 6 g/dL | gamma-GTP [7]: 1.2 IU/L | ALT [8]: 40.8 IU/L | AST [8]: 70.4 IU/L | BUN [8]: 17.6 mg/dL | CRE [8]: 0.2 mg/dL | Ca [8]: 11.1 mg/dL | Cl [8]: 108.4 meq/L | DBIL [8]: 0.016 mg/dL | GLC [8]: 202.8 mg/dL | IP [8]: 6.6 mg/dL | K [8]: 3.8 meq/L | LDH [8]: 65 IU/L | Na [8]: 146.6 meq/L | PL [8]: 161.8 mg/dL | RALB [8]: 2.9 g/dL | TBIL [8]: 0.016 mg/dL | TC [8]: 79.2 mg/dL | TG [8]: 147.4 mg/dL | TP [8]: 6.5 g/dL | gamma-GTP [8]: 1 IU/L | TERMINAL_BW (240 mg/kg, 72 h, dose level Middle, time 3 day): 216.9 g
